PMC7615343, “Fluorination Influences the Bioisostery of Myo-Inositol Pyrophosphate Analogs” (Chemistry (Weinheim an der Bergstrasse, Germany), 2023)
pIC50: −log10 of the molar value.

Biological target: T1, PPIP5K2^1-366 (human PPIP5K2 kinase domain) (Homo sapiens, UniProt O43314)
T1 construct: one comprised residues 1–366; made in house
T1 sequence (O43314 1-366): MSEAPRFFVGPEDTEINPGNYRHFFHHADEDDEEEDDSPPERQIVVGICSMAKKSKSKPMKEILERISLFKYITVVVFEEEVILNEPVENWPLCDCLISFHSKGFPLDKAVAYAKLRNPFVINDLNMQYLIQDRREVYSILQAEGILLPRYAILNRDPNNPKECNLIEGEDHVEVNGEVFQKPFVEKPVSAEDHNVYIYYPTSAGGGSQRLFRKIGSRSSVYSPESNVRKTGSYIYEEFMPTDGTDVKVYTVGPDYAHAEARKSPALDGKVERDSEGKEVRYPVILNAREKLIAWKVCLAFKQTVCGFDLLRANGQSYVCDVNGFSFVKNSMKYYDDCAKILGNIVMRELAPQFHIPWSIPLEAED
Assay: PPIP5K2KD reverse kinase assay (ATP formation from ADP and 1,5(PP)2-IP4)
Type: biochemical
Settings: 25 °C, 30 min, 0.1 mM ADP, 100 nM [1,5]PP-IP4, ATP production measured; this work; read-out: IC50, inhibition of the reverse kinase activity of PPIP5K2^1-366
Description: An alternative method to study the interaction of PP-IP5 analogs with PPIP5K2^KD is to derive IC50 values for inhibition of a “reverse-kinase” assay that records ATP formation when the enzyme is incubated with ADP and 1,5(PP)2-IP4.[29, 31] This approach avoids the need to use radiolabeled material and HPLC analysis. Moreover, the assay of ATP production is inherently more sensitive compared to measuring ATP consumption. […] In addition to the catalytic pocket, the PPIP5K2 kinase reaction cycle also utilizes a surface-mounted substrate capture site; the latter was initially identified through its binding of 5PA-IP5.[31] […] In this case, the higher affinity of the capture site for less polar molecules may explain why 5PA-IP5 is the only analog so far detected in this site.
For the reverse kinase assay, PPIP5K2^1-366 (2.5 μg mL^-1) was incubated at 25 °C for 30 min with 20 μL buffer containing 20 mM Tris-HCl, pH 7.5, 10 mM MgCl2, 0.1 mM ADP, 100 nM [1,5]PP-IP4 and various concentrations of either 5PCP-IP5 or 5PCF2P-IP5. The generated ATP was measured using a Molecular Probes ATP Determination kit (Thermo Fisher Scientific catalog number A22066). The IC50 value was calculated using GraphPad Prism. […]
Diffraction data were collected using APS beamlines 22 -ID. […] The structure was determined using rigid body and direct Fourier synthesis, and refined with t he equivalent and expanded test sets. […]

SMILES	pIC50
O=P(O)(O)O[C@H]1[C@@H](OP(=O)(O)O)[C@H](OP(=O)(O)O)[C@@H](OP(=O)(O)C(F)(F)P(=O)(O)O)[C@H](OP(=O)(O)O)[C@H]1OP(=O)(O)O [5PCF2P-IP5]	6.23
O=P(O)(O)CP(=O)(O)O[C@H]1[C@H](OP(=O)(O)O)[C@@H](OP(=O)(O)O)[C@@H](OP(=O)(O)O)[C@@H](OP(=O)(O)O)[C@@H]1OP(=O)(O)O [5PCP-IP5]	6.65
